This is an account of results in ChEMBL document CHEMBL1143372, “Synthesis of Pro-Xylane: a new biologically active C-glycoside in aqueous media” (2009).

What all share (assay type): functional, Homo sapiens
The test system of assay [1] is NHDF. The assay is described as follows: Antiaging activity in NHDF assessed as D-[6-H3]-glucosamine incorporation into glycosaminoglycan fraction at 10 mM after 72 hrs relative to control.
In assay [2] the test system is NHDF. In words: Antiaging activity in NHDF assessed as D-[6-H3]-glucosamine incorporation into glycosaminoglycan fraction at 0.4 mM after 72 hrs relative to control.
Assay [3] deals with NHDF. In words: Antiaging activity in NHDF assessed as D-[6-H3]-glucosamine incorporation into glycosaminoglycan fraction at 2 mM after 72 hrs relative to control.
Assay [4] relates to NHDF. In words: Antiaging activity in NHDF assessed as D-[6-H3]-glucosamine incorporation into glycosaminoglycan fraction at 1 mM after 72 hrs relative to control.
Assay [5] relates to NHDF. The assay is described as follows: Antiaging activity in NHDF assessed as D-[6-H3]-glucosamine incorporation into glycosaminoglycan fraction at 3 mM after 72 hrs relative to control.
Assay [6] concerns NHDF. In words: Antiaging activity in NHDF assessed as D-[6-H3]-glucosamine incorporation into glycosaminoglycan fraction at 0.3 mM after 72 hrs relative to control.
Assay [7] has as its system NHDF. In words: Antiaging activity in NHDF assessed as D-[6-H3]-glucosamine incorporation into glycosaminoglycan fraction at 0.1 mM after 72 hrs relative to control.
Assay [8] has as its system NHDF. In words: Antiaging activity in NHDF assessed as D-[6-H3]-glucosamine incorporation into glycosaminoglycan fraction at 0.08 mM after 72 hrs relative to control.
For assay [9], the system named is NHDF. The assay is described as follows: Antiaging activity in NHDF assessed as D-[6-H3]-glucosamine incorporation into glycosaminoglycan fraction at 0.02 mM after 72 hrs relative to control.
The test system of assay [10] is NHDF. The assay is described as follows: Antiaging activity in NHDF assessed as D-[6-H3]-glucosamine incorporation into glycosaminoglycan fraction at 0.5 mM after 72 hrs relative to control.

For `CC(=O)C[C@@H]1OC[C@@H](O)[C@H](O)[C@H]1O`, the Activity in assay [1] is reported as 161%; in assay [2] it was 110%; in assay [3] it was 141%.

In the case of `CC(=O)C[C@@H]1O[C@H](CO)[C@H](O)[C@H](O)[C@H]1O`, the Activity in [4] is recorded as 136%; in [1], 99%; in assay [5] it was 119%.

Take `CC(O)C[C@@H]1OC[C@@H](O)[C@H](O)[C@H]1O` (stereo partly drawn): the Activity in assay [4] is 169%; in [6] it was 139%; in assay [5], 218%.

As to `O=C(C[C@@H]1OC[C@@H](O)[C@H](O)[C@H]1O)c1ccccc1`, the Activity in assay [4] stood at 95%; in assay [6] it was 102%; in assay [7], 120%.

Regarding `O[C@@H]1[C@H](O)[C@@H](O)OC[C@H]1O` [LYXOSE], the Activity in [2] came out at 102%; in assay [8], 90%; in assay [3], 86%.

As to `O=C[C@H](O)[C@@H](O)[C@H](O)CO` [XYLOSE], the values for the Activity in [7], in [9] and in assay [10] were 85%, 106% and 52%, respectively.
